# Results published in ChEMBL document CHEMBL1151639, “Antibacterial sesquiterpene aryl esters from Armillaria mellea” (J Nat Prod, 1985).
# Activity calls are given as the source filed them. The calls are words filed in the database; no cut-off is given here.
# Columns and labels:
# Type in all cases: functional, organism-based
# Pseudomonas aeruginosa = assay: Antibacterial activity against Pseudomonas aeruginosa
# Staphylococcus aureus = assay: Antibacterial activity against Staphylococcus aureus 209P ATCC 53156
# Bacillus subtilis = assay: Antibacterial activity against Bacillus subtilis 5262 ATCC 6633
# Escherichia coli = assay: Antibacterial activity against Escherichia coli
smiles,measurement,setting,value
CO[C@]12C(C=O)=C[C@@H]3CC(C)(C)C[C@@H]3[C@@]1(C)C[C@H]2OC(=O)c1c(C)cc(O)cc1O,Activity,Pseudomonas aeruginosa,inactive
same,Activity,Staphylococcus aureus,Active
same,Activity,Bacillus subtilis,Active
same,Activity,Escherichia coli,inactive
